Laboratory results reported in US20160030631A1, “Injectable Biodegradable Bone Matrix for Multiple Myeloma Lesion Augmentation and Osteoporosis” (THE UNIVERSITY OF TOLEDO, priority 2013, published 2016).
Where a SMILES comes first, the peptide text is derived from it. Bridges are numbered along the chain shown (N, C = ends). The star is where a group is joined. Cbz = O=C(OCc1ccccc1)*

Tests used:
RAW 264.7 culture = test: Anti-osteoclastogenesis: cathespin K expression by real-time PCR; type: cell-based; conditions: MG132 released from cement; 5-day TNFalpha treatment
Experimental: The anti-osteoclastogenesis of MG132-loaded cement was tested after a 5-day treatment of TNFalpha in RAW 264.7 culture. In this case, expression of the marker gene cathespin K was measured by real-time PCR.

[1] = test system: pre-osteoclast RAW 264.7 cell culture; test: TRAP+ cell staining for osteoclast activation with WP9QY-loaded cement; type: cell-based; conditions: WP9QY released from MWCNT/CPC or CPC; 5 days; TNFalpha stimulated; FIG. 6
Source text: The MWCNT/CPC or CPC alone were loaded with WP9QY ([…], [SEQ ID NO: 1]), which is a peptide compound designed to compete ligand binding of RANK and to inhibit osteoclastogensis. The WP9QY peptide has a sequence of H-[…]OH [SEQ ID NO: 1], and was developed based on a structural analysis of the ligand binding site on TNF receptor 1 and RANK to inhibit osteoclast-activating. This cyclic peptide mimics the most critical tumor necrosis factor (TNF) recognition loop on TNF receptor 1, and prevents interaction of TNF with its receptor. The peptide was added directly to the cement paste to form the bone filler composition. Briefly, 100 μL of 1 mg/mL WP9QY was added into 0.5 mL DI water when mixing with 1 g of cement powder.
The cement pellet was washed with ethanol and left in a pre-osteoclast RAW 264.7 cell culture treated to trigger cell differentiation. To measure anti-osteoclast maturation of WP9QY released from the cement, the culture was stained for TRAP+ (osteoclast-like) cells after 5 days. TRAP+ cells are a marker for active osteoclasts after stimulated by the cytokine TNFalpha. The results, shown in FIG. 6, indicate that both composites can carry and release WP9QY.

## CC(C)C[C@@H](C=O)NC(=O)[C@H](CC(C)C)NC(=O)[C@H](CC(C)C)NC(=O)OCc1ccccc1 [MG132] (Cbz-Leu-Leu-Leu-aldehyde)
RAW 264.7 culture
  osteoclast maturation (cathespin K expression): osteoclast maturation can be inhibited

## H-Tyr-Cys-Trp-Ser-Gln-Tyr-Leu-Cys-Tyr-OH (H-YCWSQYLCY-OH; disulfide 2-8 (inferred)) [WP9QY]
[1]
  osteoclast activation (TRAP+ cells): osteoclast activation was inhibited
